10 compounds from ChEMBL document CHEMBL1201862, “PubChem BioAssay data set” (2004) can be followed below.

Each structure is given as a SMILES string. Structures can show the parent of a compound that is named as a salt. Calls of active or inactive are those of the source. Where only a bound is given, the exact number is not on record here.

Data set [1] relates to Escherichia coli. Nature of the data set: microbe, parasite or virus in culture.
Data set [2] has as its system Streptococcus sp. 'group A'. Description: growth inhibition of control SK(-) GAS strain, dose response, counter-screen for streptokinase expression inhibitor project, luminescence, kanamycin, BacTiterGlo, confirmation (AID 1900). In kind it is functional, organism-based.
Data set [3] concerns Streptococcus. Description: Group A Streptococcus viability loss, dose response, counter-screen for streptokinase expression inhibitor project, luminescence, BacTiterGlo (AID 1915).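 Also: potency for reduction of bacterial viability or growth.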 In kind it is functional, organism-based.
Data set [4] concerns Escherichia coli. Nature of the data set: microbe, parasite or virus in culture. This is another data set of the same source.
Data set [5] is described as follows: Fluorescence-based cell-based high throughput dose response assay for inhibitors of the interaction of nucleotide-binding oligomerization domain containing 2 (NOD2) and the receptor-interacting serine-threonine kinase 2 (RIPK2). In kind it is functional. As to conditions: Homo sapiens.
Data set [6] in a line: A549 cell cytotoxicity, dose response, cytotoxicity control, plate reader, cherry-pick, antagonist series (AID 743412). In kind it is functional, cell-based.
Data set [7] is described as follows: LGR2 antagonists, dose response, cell-based, HEK293, CRE-luciferase reporter, cherry pick, set 2 (AID 743343).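 Also: transfected cells were stimulated with diluted bursicon conditioned medium after compound addition.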 The data set is classed as functional.
Data set [8] can be described thus: HepG2 cell cytotoxicity, dose response, cytotoxicity control, plate reader, cherry-pick, antagonist series (AID 743416). In kind it is functional, cell-based.
Data set [9] is described as follows: HEK293 cell cytotoxicity, dose response, cytotoxicity control, plate reader, cherry-picked samples (AID 743446). The data set is classed as functional, cell-based.
Data set [10] can be described thus: MC4R antagonists, dose response, counter-screen for LGR2 antagonist project, cell-based, plate reader, cherry pick (AID 743444).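 Also: transfected HEK 293 cells stimulated with alpha-MSH peptide; potency of inhibitors of the alpha-MSH evoked signal.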 The data set is classed as functional.
In the next data set the target is Paired box protein Pax-8 (Homo sapiens, UniProt Q06710). Nature of the data set: inhibitors of PAX8-driven TPO luciferase reporter, dose response, RMG-I cells, cherry-pick (AID 687027).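 Also: luciferase reporter driven by Pax8 target thyroperoxidase promoter measured by SteadyGlo luminescence.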 In kind it is functional, cell-based.
Sequence of Paired box protein Pax-8 (Q06710 whole entry): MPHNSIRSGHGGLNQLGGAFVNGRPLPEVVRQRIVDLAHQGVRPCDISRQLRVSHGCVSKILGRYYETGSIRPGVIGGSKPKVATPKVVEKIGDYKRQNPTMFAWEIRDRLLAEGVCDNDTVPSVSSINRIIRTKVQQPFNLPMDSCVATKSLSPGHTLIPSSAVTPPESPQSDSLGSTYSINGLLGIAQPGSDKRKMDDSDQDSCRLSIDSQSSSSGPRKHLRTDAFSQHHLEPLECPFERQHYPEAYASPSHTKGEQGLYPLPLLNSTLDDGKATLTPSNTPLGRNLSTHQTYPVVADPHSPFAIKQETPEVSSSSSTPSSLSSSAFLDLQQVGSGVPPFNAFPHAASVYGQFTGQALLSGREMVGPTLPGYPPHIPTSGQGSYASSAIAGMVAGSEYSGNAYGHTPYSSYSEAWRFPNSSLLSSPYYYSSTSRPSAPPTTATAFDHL
For a further data set, the target named is Cytochrome P450 3A4 (Homo sapiens, UniProt P08684).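 Also: CYP3A4 tested as one member of a cytochrome P450 panel screen.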
Sequence of Cytochrome P450 3A4 (P08684 whole entry): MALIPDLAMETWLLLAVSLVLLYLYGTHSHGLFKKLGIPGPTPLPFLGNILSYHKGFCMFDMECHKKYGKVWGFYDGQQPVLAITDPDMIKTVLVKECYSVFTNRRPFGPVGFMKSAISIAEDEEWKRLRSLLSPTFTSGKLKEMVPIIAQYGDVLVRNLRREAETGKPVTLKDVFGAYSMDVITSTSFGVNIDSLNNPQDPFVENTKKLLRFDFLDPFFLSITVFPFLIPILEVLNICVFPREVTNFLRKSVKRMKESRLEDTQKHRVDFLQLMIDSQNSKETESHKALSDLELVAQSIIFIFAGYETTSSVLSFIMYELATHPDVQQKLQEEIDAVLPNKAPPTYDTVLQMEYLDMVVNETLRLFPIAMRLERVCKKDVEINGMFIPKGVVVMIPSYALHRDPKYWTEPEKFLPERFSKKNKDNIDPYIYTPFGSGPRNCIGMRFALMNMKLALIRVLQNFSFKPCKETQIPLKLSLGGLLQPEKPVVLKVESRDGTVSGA
In the next data set the target is T1, Cytochrome P450 1A2 (Homo sapiens, UniProt P05177).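 Also: PubChem cytochrome P450 panel assay, CYP1A2 panel member.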
T1 sequence (P05177 whole entry): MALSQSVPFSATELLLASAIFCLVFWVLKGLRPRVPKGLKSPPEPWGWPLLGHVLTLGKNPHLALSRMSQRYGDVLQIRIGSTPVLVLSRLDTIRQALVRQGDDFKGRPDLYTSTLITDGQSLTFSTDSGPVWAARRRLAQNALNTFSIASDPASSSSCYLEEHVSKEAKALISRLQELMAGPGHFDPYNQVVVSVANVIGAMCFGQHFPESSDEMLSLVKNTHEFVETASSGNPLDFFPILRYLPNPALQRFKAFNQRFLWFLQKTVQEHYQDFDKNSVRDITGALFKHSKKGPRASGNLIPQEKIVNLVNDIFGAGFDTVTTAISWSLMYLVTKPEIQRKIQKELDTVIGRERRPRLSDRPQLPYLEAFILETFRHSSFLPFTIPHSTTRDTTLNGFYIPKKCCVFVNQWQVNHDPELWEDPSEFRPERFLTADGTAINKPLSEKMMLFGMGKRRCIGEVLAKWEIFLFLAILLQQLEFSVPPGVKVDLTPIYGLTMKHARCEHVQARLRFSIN

A further data set has as its target Cytochrome P450 2C19 (Homo sapiens, UniProt P33261). Description: Cytochrome panel assay with activity outcomes. Panel member name: p450-cyp2c19 Compounds with AC50 equal or less than 10 uM are considered active. In kind it is functional. As to conditions: read-out: AC50.
Data set [11] addresses G-protein coupled receptor 55 (Homo sapiens, UniProt Q9Y2T6). Description: GPR55 antagonists, SAR follow-up, counter-screen for GPR35 antagonist project, imaging, image-based (AID 2397). In kind it is functional.
The nature of data set [12]: off-target signal loss in HeLa-CEM21 co-culture – HeLa F-luc CTL cells, cherry-picked, counter-screen for HIV-1 Env fusion inhibitor project, dose response (AID 652040).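 Also: potency for signal decrease marking cytotoxic or nonspecific inhibition.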 In kind it is functional, cell-based.
The test system of data set [13] is HEK293. Nature of the data set: NOD2 signaling inhibitors in MDP-stimulated cells, cell-based, uHTS, luminescence (AID 2001). The following applies: Homo sapiens. The data set is classed as functional.
Data set [14] concerns HEK293. Nature of the data set: NOD1 signaling inhibitors, primary screen, cell-based, luminescence, uHTS (AID 1578). In kind it is functional. The following applies: Homo sapiens.
Data set [15] concerns HEK293. Nature of the data set: cells. The data set is classed as functional, cell-based. As to conditions: Homo sapiens.
The test system of data set [16] is HEK293. Nature of the data set: cells. The data set is classed as functional, cell-based. The following applies: Homo sapiens. The source holds these as a separate data set.
A further data set deals with T2, Streptokinase A (Streptococcus pyogenes serotype M1, UniProt P10520).
T2 sequence (P10520 whole entry): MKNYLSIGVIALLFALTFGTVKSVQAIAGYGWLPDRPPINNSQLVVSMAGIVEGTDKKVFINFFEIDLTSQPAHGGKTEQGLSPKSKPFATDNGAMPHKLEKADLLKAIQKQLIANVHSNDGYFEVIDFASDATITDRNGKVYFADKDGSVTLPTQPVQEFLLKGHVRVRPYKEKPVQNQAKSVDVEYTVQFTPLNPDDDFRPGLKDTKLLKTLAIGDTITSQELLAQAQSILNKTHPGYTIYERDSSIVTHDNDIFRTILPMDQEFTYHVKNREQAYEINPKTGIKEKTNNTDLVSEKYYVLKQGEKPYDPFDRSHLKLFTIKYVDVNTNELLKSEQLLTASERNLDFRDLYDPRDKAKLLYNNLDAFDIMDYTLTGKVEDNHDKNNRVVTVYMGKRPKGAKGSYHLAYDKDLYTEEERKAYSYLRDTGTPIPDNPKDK
Nature of the data set: S. pyogenes streptokinase expression inhibitors, potency, dose response, plasminogen activation absorbance, OD405 (AID 1914).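 Also: secreted streptokinase activity via plasminogen activation per viability signal from cell pellet.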 In kind it is functional, Streptococcus pyogenes M1 GAS.

Data set [17] addresses Protein-tyrosine kinase 2-beta (Homo sapiens, UniProt Q14289).
Data set [18] deals with Peroxisome proliferator-activated receptor gamma/Nuclear receptor coactivator 3 (Homo sapiens, UniProt P37231). Description: TR-FRET dose response biochemical High Throughput Screening assay for agonists of the steroid receptor coactivator 3 (SRC-3) recruitment by the peroxisome proliferator-activated receptor gamma (PPAR gamma): non-selective agonists. [Related pubchem assays: 1301 (Confirmation screen.), 1048 (Primary screen.)]. In kind it is functional.
Sequence of Peroxisome proliferator-activated receptor gamma/Nuclear receptor coactivator 3 (P37231 whole entry): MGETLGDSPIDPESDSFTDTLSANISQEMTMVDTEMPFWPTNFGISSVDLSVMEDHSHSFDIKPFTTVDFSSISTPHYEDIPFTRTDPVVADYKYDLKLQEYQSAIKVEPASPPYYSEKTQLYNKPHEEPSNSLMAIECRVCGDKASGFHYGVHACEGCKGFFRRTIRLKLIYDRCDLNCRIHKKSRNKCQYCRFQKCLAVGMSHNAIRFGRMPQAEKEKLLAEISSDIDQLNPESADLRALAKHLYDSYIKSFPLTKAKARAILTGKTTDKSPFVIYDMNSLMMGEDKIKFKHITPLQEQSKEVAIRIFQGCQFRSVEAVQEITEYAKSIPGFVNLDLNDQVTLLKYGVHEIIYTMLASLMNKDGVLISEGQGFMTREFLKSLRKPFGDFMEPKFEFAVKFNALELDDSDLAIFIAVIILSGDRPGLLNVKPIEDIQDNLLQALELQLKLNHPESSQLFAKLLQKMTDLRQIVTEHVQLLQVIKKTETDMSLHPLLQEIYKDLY
Sequence of Peroxisome proliferator-activated receptor gamma/Nuclear receptor coactivator 3 (Q9Y6Q9 whole entry, further chain): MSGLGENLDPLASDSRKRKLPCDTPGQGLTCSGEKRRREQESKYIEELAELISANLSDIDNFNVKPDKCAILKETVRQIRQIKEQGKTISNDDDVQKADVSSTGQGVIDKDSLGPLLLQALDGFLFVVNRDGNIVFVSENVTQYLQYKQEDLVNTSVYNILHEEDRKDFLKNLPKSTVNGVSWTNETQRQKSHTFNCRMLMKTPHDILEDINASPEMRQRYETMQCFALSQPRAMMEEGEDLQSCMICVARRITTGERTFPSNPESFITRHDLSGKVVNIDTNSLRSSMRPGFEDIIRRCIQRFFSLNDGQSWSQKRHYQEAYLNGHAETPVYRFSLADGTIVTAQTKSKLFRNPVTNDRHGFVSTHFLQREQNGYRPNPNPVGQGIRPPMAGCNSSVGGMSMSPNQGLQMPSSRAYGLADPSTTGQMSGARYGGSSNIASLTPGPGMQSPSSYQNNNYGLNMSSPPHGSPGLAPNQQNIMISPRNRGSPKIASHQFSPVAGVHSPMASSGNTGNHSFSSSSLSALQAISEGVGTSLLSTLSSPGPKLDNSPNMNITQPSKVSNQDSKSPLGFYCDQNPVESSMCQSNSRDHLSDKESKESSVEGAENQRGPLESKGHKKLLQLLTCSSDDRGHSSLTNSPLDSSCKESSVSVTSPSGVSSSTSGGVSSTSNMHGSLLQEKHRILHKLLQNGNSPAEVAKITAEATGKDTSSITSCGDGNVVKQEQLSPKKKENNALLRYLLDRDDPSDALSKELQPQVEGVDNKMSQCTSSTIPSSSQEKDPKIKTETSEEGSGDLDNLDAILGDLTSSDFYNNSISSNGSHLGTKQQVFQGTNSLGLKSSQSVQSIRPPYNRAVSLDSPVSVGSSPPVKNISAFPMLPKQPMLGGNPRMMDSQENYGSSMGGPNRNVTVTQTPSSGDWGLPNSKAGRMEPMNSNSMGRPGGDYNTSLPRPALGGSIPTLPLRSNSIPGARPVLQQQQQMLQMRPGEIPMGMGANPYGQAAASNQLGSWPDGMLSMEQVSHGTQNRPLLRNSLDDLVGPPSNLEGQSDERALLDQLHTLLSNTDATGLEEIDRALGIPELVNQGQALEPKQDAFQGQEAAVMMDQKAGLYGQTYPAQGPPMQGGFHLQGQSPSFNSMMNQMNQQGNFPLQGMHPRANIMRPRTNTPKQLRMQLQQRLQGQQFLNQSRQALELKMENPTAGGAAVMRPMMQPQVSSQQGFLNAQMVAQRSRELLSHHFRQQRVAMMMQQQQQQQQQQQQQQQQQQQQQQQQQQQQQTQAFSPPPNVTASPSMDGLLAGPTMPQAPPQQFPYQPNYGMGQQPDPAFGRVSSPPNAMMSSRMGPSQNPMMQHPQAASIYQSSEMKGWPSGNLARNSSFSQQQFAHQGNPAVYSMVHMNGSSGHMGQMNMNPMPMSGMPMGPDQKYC

Data set [19] concerns the target Peroxisome proliferator-activated receptor gamma/Nuclear receptor coactivator 2 (Homo sapiens, UniProt P37231). Description: TR-FRET dose response biochemical High Throughput Screening assay for agonists of the steroid receptor coactivator 2 (SRC-2) recruitment by the peroxisome proliferator-activated receptor gamma (PPAR gamma): non-selective agonists. [Related pubchem assays: 1297, 1032 ]. In kind it is functional.

Data set [20] concerns Streptococcus. Nature of the data set: Luminescence Microorganism-Based Dose Response Follow up to Identify Compounds Cytotoxic to Streptococcus. [Related pubchem assays: 1677 (Project Summary), 1915, 1914, 1902 (Retest at Dose), 1900 (Counter Screen), 1662 (Primary HTS)]. In kind it is functional, organism-based.
Data set [21] deals with Peroxisome proliferator-activated receptor gamma/Nuclear receptor coactivator 1 (Homo sapiens, UniProt P37231). Nature of the data set: TR-FRET dose response biochemical High Throughput Screening assay for agonists of the steroid receptor coactivator 1 (SRC-1) recruitment by the peroxisome proliferator-activated receptor gamma (PPAR gamma): non-selective agonists. [Related pubchem assays (depositor defined):AID1300, AID1808, AID504735, AID631]. In kind it is protein assay.

A short description of data set [22]: HEp-2 cell cytotoxicity, dose response, cytotoxicity control for RSV inhibitor project, HTS (AID 2410). The data set is classed as functional. The following applies: human respiratory syncytial virus.
The next data set has as its target Phosphomannomutase 2 (Homo sapiens, UniProt O15305). Description: Counter screen SAR assay for PMM2 inhibitors via a fluorescence intensity assay. [Related pubchem assays (depositor defined):AID1545, AID1574].
Data set [23] has as its target T3, Mannose-6-phosphate isomerase (Homo sapiens, UniProt P34949).
T3 sequence (P34949 whole entry): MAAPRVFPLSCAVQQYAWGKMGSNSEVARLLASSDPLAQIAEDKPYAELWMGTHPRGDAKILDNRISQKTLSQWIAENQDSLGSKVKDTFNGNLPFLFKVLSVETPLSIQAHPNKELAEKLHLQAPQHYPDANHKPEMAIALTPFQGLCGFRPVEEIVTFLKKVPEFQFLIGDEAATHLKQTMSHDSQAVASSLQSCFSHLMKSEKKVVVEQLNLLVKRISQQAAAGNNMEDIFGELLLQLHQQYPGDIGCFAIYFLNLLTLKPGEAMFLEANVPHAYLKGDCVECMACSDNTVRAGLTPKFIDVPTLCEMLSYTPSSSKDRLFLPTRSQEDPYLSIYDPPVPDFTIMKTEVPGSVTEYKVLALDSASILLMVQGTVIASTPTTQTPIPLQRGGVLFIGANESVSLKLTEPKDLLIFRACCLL
Nature of the data set: PMI enzyme inhibitors, confirmation, biochemical, fluorescence intensity (AID 1535).

In another data set the target is T4, X-box-binding protein 1 (Homo sapiens, UniProt P17861).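 Also: confirmatory dose-response counter-screen serving a CHOP assay.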
T4 sequence (P17861 whole entry): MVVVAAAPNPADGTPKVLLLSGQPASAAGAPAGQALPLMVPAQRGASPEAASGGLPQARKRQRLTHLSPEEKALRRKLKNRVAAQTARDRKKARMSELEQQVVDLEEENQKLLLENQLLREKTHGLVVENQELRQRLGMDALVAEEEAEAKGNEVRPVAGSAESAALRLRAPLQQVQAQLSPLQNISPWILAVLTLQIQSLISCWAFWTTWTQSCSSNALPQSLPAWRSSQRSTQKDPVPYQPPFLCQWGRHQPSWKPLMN
In kind it is functional, Cricetulus griseus.

Data set [24] deals with DNA damage-inducible transcript 3 protein (Mus musculus, UniProt P35639). In kind it is functional, Cricetulus griseus.

Sequence of G-protein coupled receptor 55 (Q9Y2T6 whole entry, the tested form may be a part): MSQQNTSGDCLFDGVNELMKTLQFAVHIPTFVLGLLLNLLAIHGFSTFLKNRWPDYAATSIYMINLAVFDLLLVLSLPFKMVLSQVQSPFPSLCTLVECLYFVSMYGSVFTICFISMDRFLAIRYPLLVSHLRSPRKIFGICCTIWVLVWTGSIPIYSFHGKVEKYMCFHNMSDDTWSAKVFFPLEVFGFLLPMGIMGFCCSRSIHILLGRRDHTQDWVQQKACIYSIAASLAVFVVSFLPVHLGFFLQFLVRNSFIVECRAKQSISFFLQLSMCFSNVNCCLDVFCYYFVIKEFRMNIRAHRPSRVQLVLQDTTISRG
Sequence of Protein-tyrosine kinase 2-beta (Q14289 whole entry): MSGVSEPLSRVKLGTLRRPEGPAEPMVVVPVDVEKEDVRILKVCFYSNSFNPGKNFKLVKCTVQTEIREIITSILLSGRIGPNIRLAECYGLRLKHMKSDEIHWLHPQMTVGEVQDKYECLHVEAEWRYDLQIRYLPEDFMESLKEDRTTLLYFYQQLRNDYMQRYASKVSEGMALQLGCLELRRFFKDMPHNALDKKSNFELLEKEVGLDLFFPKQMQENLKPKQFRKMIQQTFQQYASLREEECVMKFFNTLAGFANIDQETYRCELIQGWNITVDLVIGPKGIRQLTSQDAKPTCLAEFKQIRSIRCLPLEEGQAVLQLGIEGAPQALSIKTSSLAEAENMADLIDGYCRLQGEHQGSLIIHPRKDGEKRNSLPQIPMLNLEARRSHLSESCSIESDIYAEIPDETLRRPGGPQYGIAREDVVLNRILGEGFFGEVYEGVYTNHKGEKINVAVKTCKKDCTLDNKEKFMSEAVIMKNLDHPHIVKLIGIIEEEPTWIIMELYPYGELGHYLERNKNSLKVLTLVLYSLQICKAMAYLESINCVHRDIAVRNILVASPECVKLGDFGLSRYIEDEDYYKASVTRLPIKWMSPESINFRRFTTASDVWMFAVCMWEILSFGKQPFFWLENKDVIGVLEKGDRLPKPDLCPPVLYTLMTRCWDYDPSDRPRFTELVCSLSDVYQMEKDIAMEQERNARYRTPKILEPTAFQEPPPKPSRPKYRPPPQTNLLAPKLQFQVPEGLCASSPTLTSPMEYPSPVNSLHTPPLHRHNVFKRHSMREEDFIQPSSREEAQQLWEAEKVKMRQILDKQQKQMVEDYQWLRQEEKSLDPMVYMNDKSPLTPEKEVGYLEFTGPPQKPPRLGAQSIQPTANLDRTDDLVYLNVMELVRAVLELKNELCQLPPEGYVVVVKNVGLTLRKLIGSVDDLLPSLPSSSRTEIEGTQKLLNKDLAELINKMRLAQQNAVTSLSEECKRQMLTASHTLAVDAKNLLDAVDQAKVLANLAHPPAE
Sequence of Cytochrome P450 2C19 (P33261 whole entry): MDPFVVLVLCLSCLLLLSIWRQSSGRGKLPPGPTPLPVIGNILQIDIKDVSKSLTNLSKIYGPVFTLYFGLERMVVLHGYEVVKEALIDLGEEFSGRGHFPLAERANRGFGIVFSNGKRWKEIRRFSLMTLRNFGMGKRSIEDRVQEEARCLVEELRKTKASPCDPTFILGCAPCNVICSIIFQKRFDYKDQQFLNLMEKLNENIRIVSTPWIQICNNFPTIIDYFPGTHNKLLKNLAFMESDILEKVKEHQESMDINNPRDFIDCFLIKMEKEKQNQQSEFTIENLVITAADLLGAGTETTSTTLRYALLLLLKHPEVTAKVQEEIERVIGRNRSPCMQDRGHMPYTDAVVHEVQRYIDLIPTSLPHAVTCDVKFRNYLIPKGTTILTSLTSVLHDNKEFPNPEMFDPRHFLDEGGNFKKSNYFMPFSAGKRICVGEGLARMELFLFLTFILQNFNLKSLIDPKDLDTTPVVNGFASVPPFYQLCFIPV
Sequence of Phosphomannomutase 2 (O15305 whole entry): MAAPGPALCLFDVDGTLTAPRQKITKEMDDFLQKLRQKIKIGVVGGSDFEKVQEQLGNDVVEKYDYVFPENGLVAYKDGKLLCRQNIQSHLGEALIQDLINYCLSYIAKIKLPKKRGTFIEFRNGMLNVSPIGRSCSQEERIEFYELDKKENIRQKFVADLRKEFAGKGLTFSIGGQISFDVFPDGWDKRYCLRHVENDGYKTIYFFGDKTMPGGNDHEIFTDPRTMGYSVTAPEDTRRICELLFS

As to `CN(C)[C@@H]1C(O)=C(C(N)=O)C(=O)[C@@]2(O)C(O)=C3C(=O)c4c(O)ccc(Cl)c4[C@@](C)(O)[C@H]3C[C@@H]12` [CHLORTETRACYCLINE HYDROCHLORIDE], the AC50 with Escherichia coli [1] was 19.8 µM (active); with Escherichia coli [4], 0.93 µM (active). Also, the figures for the concentration for a half-maximal effect (EC50) (in data set [2]; in the data set on Streptococcus [3]) were < 0.06 µM (active) and 0.148 µM (active), respectively.
Regarding `N#CC1c2ccccc2-n2nncc2CN1Cc1cc(Cl)cc(Cl)c1` (stereo unspecified), the IC50 in [5] was 5.8 µM (active). The concentration at half-maximal activity (AC50) is 15.2 µM (active) in data set [6]; 3.37 µM (active) in data set [7]; 7.48 µM (active) in data set [8]; 22.5 µM (active) in the data set with Escherichia coli [1]; 6.5 µM (active) in data set [9]; 2.45 µM (active) in data set [10]. In addition, the AC50 on Paired box protein Pax-8 is 10.2 µM (active); with Escherichia coli [4], 2.36 µM (active).
Take `CCc1nnc(NC(=O)CCC(=O)N2CCN(c3ccccn3)CC2)s1`: at Cytochrome P450 3A4, the AC50 entry is given as “inconclusive”.
As to `c1ccc(CN2CCC3(CCCc4ccccc43)CC2)cc1`, the AC50 on Cytochrome P450 1A2 is 31.6 µM (inconclusive); on Cytochrome P450 2C19, 10 µM (inconclusive); on Cytochrome P450 3A4, “inconclusive”.
Take `Cc1nc(N2CCC(C)CC2)c2c(C)c(C(=O)Nc3ccc(C)c(F)c3)sc2n1`: the IC50 in data set [11] is > 32 µM (inactive).
For the compound `Cc1ccc(Cn2ncc3c(N4CCN(c5ccc(C)cc5)CC4)ncnc32)cc1`, the concentration at half-maximal activity (AC50) in [12] is 6.95 µM (active). In data set [11], the IC50 was > 32 µM (inactive).
For `COc1cc(S(=O)(=O)NCc2ccncc2)ccc1Br`, the IC50 with HEK293 [13] is > 20 µM (inactive); in the data set with HEK293 [15], > 20 µM (inactive); in the data set on HEK293 [16] it was 16.5 µM (active). Also, the EC50 with HEK293 [14] is 3.02 µM (active).
As to `COc1ccc(-c2nc(-c3cccs3)c(-c3cccs3)[nH]2)cc1OC`, the EC50 at Streptokinase A was 1.41 µM (active); in data set [2] it was 2.57 µM (active); in data set [18], > 79.4 µM (not active); in [19] it was 15.6 µM (not active); with Streptococcus [3], > 150 µM (not active); with Streptococcus [20], 5.41 µM (active). In addition, in data set [21], the EC50 was 13.9 µM (inactive). Further, in data set [17], the IC50 is listed as > 69.5 µM (not active). For the same compound, in data set [22], the CC50 is 23.4 µM (active).
For `Clc1cccc(/N=c2\ssnc2Cl)c1`, the IC50 on Phosphomannomutase 2 was > 100 µM (inactive); in [23], 51.1 µM (active).
For the compound `O=C1NC(=O)N(Cc2ccco2)C(=O)/C1=C/C=C/c1ccco1`, the results for the IC50 in the data set on HEK293 [13], in the data set with HEK293 [15] and with HEK293 [16] were > 20 µM (inactive), > 20 µM (inactive) and 16.2 µM (active), respectively. Also, on X-box-binding protein 1, the “Absolute IC50 (XBP1)” value turned out to be 10 µM. Besides, the “Absolute IC50 (CHOP)” value in [24] was 10 µM. For the same compound, the EC50 in the data set with HEK293 [14] is > 20 µM (inactive).
